Measurements from US20250262189A1, “TREATMENT OF DISEASES ASSOCIATED WITH REDUCTIVE STRESS” (RDiscovery, LLC, priority 2022, published 2025).
“Also recorded” adds a separate entry of the source.

Tested on: GDF-15 expression in HUVEC cells
Assay: GDF-15 mRNA expression by RT-qPCR in HUVEC cells under AZT-induced reductive stress
Type: cell-based, Human
Settings: AZT 5 μM with ZLN-005 1 μM, harvested Day 6, two sets of runs (FIG. 1, FIG. 2), AZT vs. AZT/ZLN P=0.016 (FIG. 2)
Description: A study was performed to evaluate the ability of ZLN-005 to mitigate the effects of reductive stress induced by azidothymidine (AZT), which is believed to inhibit mitochondrial respiratory chain complex I and II.
Human human umbilical vein endothelial (HUVEC) cells were cultured in HuMedia-EG2 medium (Kurabo) at 5×10^4 cells per well in a six-well plate. Medium was supplemented with AZT (Sigma) at 5 μM, with or without ZLN-005 at 1 μM. Cells cultured without AZT and without ZLN-005 were used as non-treated control (NTC)). Medium was changed on days 2 and 4. Cells were harvested on Day 6 for analysis of GDF-15 mRNA expression by quantitative reverse transcription PCR (RT-qPCR).

CC(C)(C)c1ccc(-c2nc3ccccc3[nH]2)cc1 [ZLN-005, 2-(4-tert-butylphenyl)-1H-benzimidazole]
GDF-15 expression compared to cells treated with AZT but not ZLN-005: reduced GDF-15 expression; also recorded: decreases expression of reductive stress biomarker GDF-15
